#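 96-well plates; 48 h exposure; 5 concentrations. Endpoints by linear interpolation between flanking doses. Not reached: highest tested concentration assigned. GI50 = concentration required for 50% inhibition of growth. TGI is the concentration that stops growth completely.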
# Key:
# Test in all cases: inhibition of tumour cell growth, NCI panel, 48 h
# MALME-3M melanoma = test system: MALME-3M melanoma
# CAKI-1 renal = test system: CAKI-1 renal
# DU-145 prostate = test system: DU-145 prostate
# NCI/ADR-RES ovarian = test system: NCI/ADR-RES ovarian
# EKVX NSCLC = test system: EKVX NSCLC
# NCI-H522 lung = test system: NCI-H522 lung
# HCT-116 colon = test system: HCT-116 colon
# A549 NSCLC = test system: A549 NSCLC
# UACC-62 melanoma = test system: UACC-62 melanoma
# BT-549 breast = test system: BT-549 breast
Compound,TGI (MALME-3M melanoma) [µM],TGI (CAKI-1 renal) [µM],TGI (DU-145 prostate) [µM],TGI (NCI/ADR-RES ovarian) [µM],TGI (EKVX NSCLC) [µM],TGI (NCI-H522 lung) [µM],TGI (HCT-116 colon) [µM],TGI (A549 NSCLC) [µM],TGI (UACC-62 melanoma) [µM],TGI (BT-549 breast) [µM],GI50 (HCT-116 colon) [µM],GI50 (BT-549 breast) [µM],GI50 (MALME-3M melanoma) [µM],GI50 (A549 NSCLC) [µM],GI50 (DU-145 prostate) [µM],GI50 (NCI/ADR-RES ovarian) [µM],GI50 (EKVX NSCLC) [µM],GI50 (NCI-H522 lung) [µM],GI50 (UACC-62 melanoma) [µM]
CC(=O)OC12c3ccccc3-c3ccccc3C1C(C(=O)O)C2C(=O)O (stereo not drawn),3.09,> 10,> 10,> 10,> 10,> 10,,,,,,,,,,,,,
Cc1ccc(S(=O)(=O)c2ccc(C)cc2[N+](=O)[O-])cc1,> 100,> 100,,,> 100,> 100,> 100,> 100,> 100,,,,,,,,,,
CC(C(=O)c1ccccc1)C1(O)C(=O)Nc2ccc(Cl)cc21 (stereo not drawn),> 100,> 100,,,> 100,,> 100,> 100,> 100,,,,,,,,,,
Cc1c(Cl)cccc1NC(=O)/C=C/c1ccccc1,> 100,73.3,> 100,,> 100,> 100,> 100,> 100,> 100,> 100,,,,,,,,,
CC1=NOC(=O)/C1=C/c1ccc([N+](=O)[O-])cc1,> 100,> 100,,,> 100,> 100,> 100,> 100,> 100,,,,,,,,,,
C=CCC1(C(=O)OC(C)(C)C)C(OC)=C(C(=O)OC(C)(C)C)C2C1C(C(=O)OC(C)(C)C)=C(OC)C2(CC=C)C(=O)OC(C)(C)C (stereo not drawn),,,,,> 100,> 100,,> 100,> 100,,,,,,,,,,
CC1CC(C)C2OC2(C)C[C@H](C)C(=O)NC(C)C(=O)N(C)[C@H](Cc2c(Br)[nH]c3ccccc23)C(=O)N[C@@H](c2ccc(O)cc2)CC(=O)O1 (stereo partly drawn),14,4.71,,,75.8,0.856,> 33.1,> 100,14.4,,,,,,,,,,
Cc1ccc(S(=O)(=O)OC(COC(=O)c2ccccc2)C(OS(=O)(=O)c2ccc(C)cc2)C(OS(=O)(=O)c2ccc(C)cc2)C(COC(=O)c2ccccc2)OS(=O)(=O)c2ccc(C)cc2)cc1 (stereo not drawn),> 100,> 100,,,> 100,> 100,> 100,> 100,> 10,,,,,,,,,,
Cc1nc(N)nc(N)c1CCCc1ccccc1,95.7,> 100,,,> 100,> 100,> 100,> 100,> 100,,,,,,,,,,
O=C(Nc1ccc(F)cc1)Nc1ccc(Br)c(C(F)(F)F)c1,5.8,,13.4,10.1,10.6,5.87,9.33,12.8,10.1,7.4,1.72,2.05,2.12,2.34,3.27,2.51,2.4,1.56,2.29
C1CN(P2(N3CC3)=NP(N3CC3)(N3CC3)=NP(N3CC3)(N3CC3)=N2)CCO1 (stereo not drawn),> 100,> 100,,,> 100,> 100,> 100,> 100,> 100,,,,,,,,,,
Cc1cc(C)c(C(=O)O)c(SSc2cc(C)cc(C)c2C(=O)O)c1,> 100,> 100,,,> 100,> 100,,> 100,> 100,,,,,,,,,,
CCCCc1c2cnccc2c(CCCC)c2c1[nH]c1ccccc12,37.8,30.2,,,36,58.2,18.1,29.5,23.7,,,,,,,,,,

# Source: PubChem BioAssay (NCI)
